In US20140243396A1, “METHOD OF TREATING MUCOEPIDERMOID CARCINOMA” (DANA-FARBER CANCER INSTITUTE, INC., priority 2011, published 2014):

How the values were obtained:
[1] = a few small 2003 studies; cited from earlier work
[2] = in vivo; cited from earlier work
[3] = system: HSY cells; experiment: cAMP measurement, enzyme immunoassay; assay type: cell-based; conditions: inhibitors
Source text: (§1) FIG. 5 illustrates inhibition of PDE4B increased cellular cAMP levels and inhibited PI3-kinase signaling. […] Columns: mean, bars: SD (n=3). B. Knock-down of PDE4B increased MEC cell cAMP level. n=3. **p<0.01, compared to control cells. Columns: mean, bars: SD (n=3). C. […] The same blot was stripped and probed with AKT or β-actin antibody. Image was cropped and auto-leveled by Photoshop. A representative of three independent experiments.
(§2) Cells were trypsinized and washed once with 1×PBS after treatment. The cell pellet was re-suspended in 100 μl of 0.1M HCL. cAMP amount was measure by Direct Cyclic AMP Enzyme Immunoassay Kit (#900-066, Assay Designs, Inc., Ann Arbor, Mich.) according to the manufacturer's protocol. The acetylated version of the kit was used.

[4] = system: H3118 cells; experiment: cAMP measurement, enzyme immunoassay; assay type: cell-based; conditions: compared to DMSO control
Source text: as §1, §2

Compound	effective in treating renal colic [1] [%]	adverse effects frequency [2] [%]	effect on cAMP levels (in words) [3]	increase of cAMP levels [4] [fold]
CCOc1ccc(/C=C2\NCCc3cc(OCC)c(OCC)cc32)cc1OCC [Drotaverine]	~80	0.9		
C=C[C@@]1(C)CC(=O)[C@]2(O)[C@@]3(C)[C@@H](O)CCC(C)(C)[C@@H]3[C@H](O)[C@H](OC(C)=O)[C@@]2(C)O1 [forskolin]			no effect	4
